Assays:
[1] = system: HeLa cells; test: WST-1 cytotoxicity assay, HeLa cells; assay type: cell-based, human; conditions: for IC50: WST-1 assay, 24 h treatment; for SI HeLa: Selectivity Index = IC50(KMST-6)/IC50(HeLa)
Procedure: (§1) HeLa, HT-29, MCF-7 and KMST-6 cells were prepared from our laboratory stocks. Briefly, cell monolayers were maintained in Dulbecco’s modified Eagle’s (DMEM, Lonza Group Ltd., Base, Switzerland) medium with phenol red supplemented with 10% foetal bovine serum (FBS, Biochrom AG, Berlin, Germany) and 1% Penicillin–streptomycin (Lonza Group Ltd.). All cells were maintained in a humidified incubated at 37 °C in an atmosphere of 5% CO2. The cells were harvested using trypsin (Lonza Group Ltd.), and viable cell concentrations were determined using the Countess® Automated Cell Counter (Invitrogen, CA, USA). 5 × 10^4 viable cells were added to each well of a 96-well tissue culture plate and incubated overnight at 37 °C under 5% CO2 in a humidified incubator to allow cells to attach to wells.
(§2) Cell viability was measured using the WST-1 assay (Roche Diagnostics GmbH, Mannheim, Germany) as previously described by Ngamwongsatit et al., 2008. Cells were plated in 96-well cell culture plates at a concentration of 5 × 10^4 cells/well in 100 µL culture medium. After 24 h the cells were treated with increasing concentrations of ethanol extract (0–2 mg/mL), fractions (0–2 mg/mL) and purified compounds (0–250 µg/mL) for a further 24 h. The extracts, fractions and compounds were prepared in DMSO and then mixed with the culture medium. The final concentrations of the DMSO were less than 0.1%. Following 24 h treatment, 10 µL of cell proliferation reagent WST-1 was added and the plates were incubated for 4 h at 37 °C under 5% CO2 in a humidified incubator. The plates wereshakenfor 1 min on a shaker and the absorbance of the samples were measured at 450 nm (reference wavelength was 750 nm) on a micro-plate reader. The cell viability was calculated using the following formula: % Viability = ODtreated well − ODblank/ODuntreated well − ODblank(1) IC50 values were calculated using Prism Graph pad software. Triplicate experiments were conducted and the results expressed as mean ± SEM.

[2] = system: HT-29 cells; test: WST-1 cytotoxicity assay, HT-29 cells; assay type: cell-based, human; conditions: for IC50: WST-1 assay, 24 h treatment; for SI HT-29: Selectivity Index = IC50(KMST-6)/IC50(HT-29)
Procedure: as §1, §2

[3] = system: MCF-7 cells; test: WST-1 cytotoxicity assay, MCF-7 cells; assay type: cell-based, human; conditions: for IC50: WST-1 assay, 24 h treatment; for SI MCF-7: Selectivity Index = IC50(KMST-6)/IC50(MCF-7)
Procedure: as §1, §2

[4] = system: KMST-6 cells; test: WST-1 cytotoxicity assay, non-cancerous KMST-6 fibroblasts; assay type: cell-based, human; conditions: WST-1 assay; for IC50: 24 h treatment, non-cancerous fibroblast
Procedure: as §1, §2

[5] = Stability of the hydrolysed derivative in organic solvents; assay type: physicochemical; conditions: organic solvents such as methanol and chloroform
Text: Compound 4 was isolated as colourless needle-like crystals with molecular formula of C30H48O2 on the basis of TOF-ESI-MS m/z 441.3735[M+H]^+. […] The signal at δ 174.8 (C-2), 77.9 (C-3) in addition to oxygenated methylene protons at δ 3.79 and 4.08 (CH2-3) indicated the presence of a lactone group. […] The NMR data were assigned unambiguously from 2D NMR spectral analysis of compound 4 and its hydrolyzed product 5. The structure was finally established from X-ray diffraction studies. Figure 2 illustrates the perspective view of the molecule with its relative configuration. The compound was thus assigned as 2,3-seco-taraxer-14-en-2,3-lactone and given the name pycanocarpine. After alkaline hydrolysis, compound 4 produced the unstable derivative viz 2,3-seco-3-hydroxy-taraxer-14-en-3-oic acid (5) as an off-white amorphous powder. The TOF-ESI-MS indicated an m/z 459.3889 [M+H]^+. It was noticeable that the free carboxylic and hydroxyl groups would easily reform the lactone ring after a short time in organic solvents such as methanol and chloroform. The NMR data of 5 is similar to the parent compound 4 and is illustrated in Table 1. Minor changes were observed between 4 and 5 for carbons C-11, -23, -24, and -26. The stereochemistry of both compounds, especially ring A, may partially explain this. In 4 the carbonyl group is directed into the same plan similar to C-24, -26 and -11.

[6] = system: MCF-7 breast tumour cell line; conditions: read-out: GI50 MCF-7; in vitro; cited from earlier work
[7] = system: ME 180 cervical tumour cell line; conditions: read-out: GI50 ME 180; in vitro; cited from earlier work
[8] = system: PC3 prostate tumour cell line; conditions: read-out: GI50 PC3; in vitro; cited from earlier work
[9] = E/Z isomer stability followed by 1H-NMR; assay type: physicochemical; conditions: 2–3 months under normal working conditions
Text: Triterpene esters containing the E-coumaric acid isomer have been reported from natural sources, while, the co-existence of E- and Z-coumaric acid esters of ursolic acid (compounds 2 and 3) in Plumeria obtusa of the same family has been reported once.

[10] = system: acetyl CoA cholestryl acyl tranferase (ACAT); parameters: method as in PMID 10425145; conditions: cited from earlier work
[11] = at the dosages used (0–250 µg/mL)

In the case of `CC1(C)CC[C@]2(C)CC=C3[C@]4(C)CCC(C(C)(C)CO)[C@](C)(CC(=O)O)C4CC[C@@]3(C)C2C1` (stereo partly shown) [Compound 5, 2,3-seco-3-hydroxy-taraxer-14-en-3-oic acid], the IC50 ([1]; Homo sapiens, HeLa, 24 h) is reported as 180 µM, the “SI HeLa” value [1] is reported as 0.06 and the IC50 ([2]; Homo sapiens, HT-29, 24 h) is reported as 170 µM. The “SI HT-29” value [2] was 0.06, the IC50 ([3]; Homo sapiens, MCF7, 24 h) was 10 µM and the “SI MCF-7” value [3] was 1. For the same compound, the IC50 ([4]; Homo sapiens, Fibroblast, 24 h) was 10 µM, the “stability (re-lactonisation)” value [5] was “unstable” and the melting point was 237 to 241 °C.

With `CC1(C)CCC2(C)CC=C3C(C)(CCC4C3(C)CCC3C(C)(C)COC(=O)CC34C)C2C1` (stereo not shown) [Compound 4, 2,3-seco-taraxer-14-en-2,3-lactone] the IC50 ([1]; Homo sapiens, HeLa, 24 h) was > 600 µM, the “cytotoxicity on HeLa cells (in words)” value [1, 11] was “did not show cytotoxicity” and the IC50 ([2]; Homo sapiens, HT-29, 24 h) was > 600 µM. For the same compound, the “cytotoxicity on HT-29 cells (in words)” value [2, 11] was “did not show cytotoxicity”, the IC50 ([3]; Homo sapiens, MCF7, 24 h) was 20 µM and the “SI MCF-7” value [3] was >30. For the same compound, the IC50 ([4]; Homo sapiens, Fibroblast, 24 h) was > 600 µM, the “cytotoxicity to non-cancerous cell line KMST-6 (in words)” value [4] was “non- cytotoxic” and the melting point was 246 to 249 °C.

For `C[C@H]1[C@H](C)CC[C@]2(C(=O)O)CC[C@]3(C)C(=CC[C@@H]4[C@@]5(C)CC[C@H](OC(=O)/C=C\c6ccc(O)cc6)C(C)(C)[C@@H]5CC[C@]43C)[C@H]12` (relative stereo) [cis-3-O-p-hydroxycinnamoyl ursolic acid], the GI50 [6] is listed as ~20 µM, the GI50 [7] is listed as ~20 µM and the GI50 [8] is listed as ~20 µM.

With `CC1CCC2(C(=O)O)CCC3(COC(=O)C=Cc4ccc(O)cc4)C(=CCC4C5(C)CCC(O)C(C)(C)C5CCC43C)C2C1C` (stereo not shown) [Compound 2, 27-p-E-coumaroloxyursolic acid] the “SI HeLa” value [1] was 2, the IC50 [1] was 50 µM and the “SI HT-29” value [2] was 1. The IC50 [2] was 100 µM, the “SI MCF-7” value [3] was 1.7 and the IC50 [3] was 60 µM. The IC50 [4] was 100 µM and the “E/Z isomerization of the isomers (1H-NMR)” value [9] was “did not observe any such change”.

In the case of `CC1CCC2(C(=O)O)CCC3(COC(=O)C=Cc4ccc(O)cc4)C(=CCC4C5(C)CCC(O)C(C)(C)C5CCC43C)C2C1C` (stereo not shown) [Compound 3, 27-p-Z-coumaroyloxyursolic acid], the “SI HeLa” value [1] is reported as 1.5, the IC50 [1] is reported as 200 µM and the “SI HT-29” value [2] is reported as 1.3. The IC50 [2] was 230 µM, the “SI MCF-7” value [3] was 1.7 and the IC50 [3] was 180 µM. For the same compound, the “cytotoxicity to non-cancerous cell line KMST-6 (in words)” value [4] was “non- cytotoxic”, the IC50 [4] was 300 µM and the “E/Z isomerization of the isomers (1H-NMR)” value [9] was “did not observe any such change”. The “activity against ACAT (in words)” value [10] was “potent activity”.

With `C[C@H]1[C@H](C)CC[C@]2(C(=O)O)CC[C@]3(C)C(=CC[C@@H]4[C@@]5(C)CC[C@H](O)C(C)(C)[C@@H]5CC[C@]43C)[C@H]12` [Compound 1, ursolic acid] the IC50 ([1]; Homo sapiens, HeLa, 24 h) was 10 µM, the “SI HeLa” value [1] was 10.0 and the IC50 ([2]; Homo sapiens, HT-29, 24 h) was 10 µM. For the same compound, the “SI HT-29” value [2] was 10.0, the IC50 ([3]; Homo sapiens, MCF7, 24 h) was 20 µM and the “SI MCF-7” value [3] was 5.0. It also gave an IC50 ([4]; Homo sapiens, Fibroblast, 24 h) of 100 µM.

Source: paper PMC6271701, “An Unusual 2,3-Secotaraxerene and Other Cytotoxic Triterpenoids from Pleiocarpa pycnantha (Apocynaceae) Leaves Collected from Nigeria” (Molecules, 2014)
